Laboratory results taken from patent US12073966B2 (priority 2012, dated 2024).
“Also recorded” adds a separate entry of the source.

How the values were obtained:
[1] = target: αHL pores (Staphylococcus aureus, UniProt P09616)
[2] = format: physicochemical
Description: A droplet containing pyranine (10 mM) and DPhPC (1 mg mL^−1) in 1 M KCl, 10 mM Tris·HCl, pH 7.0, was used to form a bilayer with another droplet containing DPhPC (1 mg mL^−1) but no pyranine in the same buffer. The droplets were incubated in a mixture of hexadecane/silicone oil AR20 (1:1 v/v) containing DPhPC (1 mg mL^−1).
An Ag/AgCl electrode, the cis electrode, was inserted into one droplet, and attached to the grounded end of a patch-clamp headstage (Axon Instruments, USA). A second Ag/AgCl electrode (trans) inserted in another droplet was connected to the active end. A positive potential causes the flow of anions from the cis to the trans electrode and of cations from trans to cis. The current was amplified by using a patchclamp amplifier (Axopatch 200B, Axon Instruments, USA), filtered with a low-pass Bessel filter (80 dB/decade) with a corner frequency of 1 kHz, and digitized with a Digidata 1322 A/D converter (Axon Instruments) at a sampling frequency of 20 kHz. Post-acquisition, the data were low-pass filtered at 100 Hz to 400 Hz. The droplet assembly, electrodes, and the headstage were enclosed in a metal box to minimize electrical noise.

[3] = target: αHL (Staphylococcus aureus, UniProt P09616); format: biochemical
αHL, sequence (P09616 27-319 limits assumed): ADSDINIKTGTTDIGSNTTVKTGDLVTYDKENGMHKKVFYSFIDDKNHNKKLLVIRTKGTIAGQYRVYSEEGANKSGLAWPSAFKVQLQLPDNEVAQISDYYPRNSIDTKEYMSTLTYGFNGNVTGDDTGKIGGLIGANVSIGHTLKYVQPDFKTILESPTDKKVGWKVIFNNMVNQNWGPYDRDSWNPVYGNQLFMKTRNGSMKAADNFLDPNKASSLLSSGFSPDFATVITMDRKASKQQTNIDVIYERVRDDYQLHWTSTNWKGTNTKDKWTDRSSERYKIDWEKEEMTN

αHL pores, sequence (P09616 27-319 limits assumed): as above

| Compound | dye transfer through bilayers of the droplet network [1] | time of influx into droplet 4 (fastest influx) [1] | time until colour change in all droplets of the second layer [1] | time until αHL-containing droplets turned green [1] | effect on bilayer stability ([2]; current recordings, pyranine 10 mM) | time the bilayer was stable (capacitance monitoring) ([2]; one droplet with pyranine 10 mM, DPhPC 1 mg mL^-1, hexadecane/silicone oil AR20 1:1) | effect on ionic current / electrical signal through αHL pores [3] |
| --- | --- | --- | --- | --- | --- | --- | --- |
| xylene cyanol | did not show any transfer; also recorded: No transfer |  |  |  |  |  |  |
| O=S(=O)(O)c1cc(O)c2ccc3c(S(=O)(=O)O)cc(S(=O)(=O)O)c4ccc1c2c34 [pyranine, 8-hydroxypyrene-1,3,6-trisulfonic acid] | only through droplets containing αHL | ≤ 13 h | 4 days | ~70 h | did not compromise bilayer stability | at least 90 min |  |
| γ-cyclodextrin [γCD] |  |  |  |  |  |  | intermittently interrupted; also recorded: interrupted by γCD blockades |
